Assay results: patent US8192962B2, “Processes for detecting toxic substances” (Daikin Industries, Ltd., priority 2001, dated 2012)

System: Unknown protein yeast genes
Assay: DNA chip mRNA expression in yeast, unknown protein yeast genes (Table 1)
Type: cell-based, Saccharomyces cerevisiae S288C
Method in brief: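 Values are treated/untreated fluorescence ratios from a whole-genome yeast DNA chip hybridized over 12 hours at 65° C with Cy3- or Cy5-labelled cDNA from poly(A) mRNA. Log-phase S288C yeast in YPD at 25° C had received a single toxic chemical for two hours, dosed to slow growth without killing.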

Measured: The level of expressed mRNA in the presence of chemical substance/The level of expressed mRNA in the absence of chemical substance

Na2As [(1)]
6.9: yeast gene YMR090W
2.8: yeast gene YHR138C, incubated two hours with chemical substance
1.1: yeast gene YER079W, incubated two hours with chemical substance | yeast gene YER163C, incubated two hours with chemical substance | yeast gene YGL199C, incubated two hours with chemical substance | yeast gene YIL023C, incubated two hours with chemical substance | yeast gene YKL153W, incubated two hours with chemical substance | yeast gene YMR095C, incubated two hours with chemical substance | yeast gene YNL156C, incubated two hours with chemical substance | yeast gene YNL234W, incubated two hours with chemical substance | yeast gene YOL083W, incubated two hours with chemical substance
3.2: yeast gene YMR316W, incubated two hours with chemical substance
0.8: yeast gene YDR330W, incubated two hours with chemical substance | yeast gene YFL006W, incubated two hours with chemical substance | yeast gene YJR054W, incubated two hours with chemical substance | yeast gene YKL195W, incubated two hours with chemical substance | yeast gene YOL036W, incubated two hours with chemical substance | yeast gene YOR197W, incubated two hours with chemical substance
0.4: yeast gene YFL032W, incubated two hours with chemical substance
1.9: yeast gene YHR199C, incubated two hours with chemical substance
2.0: yeast gene YBL048W | yeast gene YLR054C, incubated two hours with chemical substance | yeast gene YOL162W, incubated two hours with chemical substance
8.3: yeast gene YKL071W
2.6: yeast gene YGL121C
0.9: yeast gene YAL053W, incubated two hours with chemical substance | yeast gene YDL222C, incubated two hours with chemical substance | yeast gene YDR411C, incubated two hours with chemical substance | yeast gene YER175C, incubated two hours with chemical substance | yeast gene YGR130C, incubated two hours with chemical substance | yeast gene YGR221C, incubated two hours with chemical substance | yeast gene YJL066C, incubated two hours with chemical substance | yeast gene YJL152W, incubated two hours with chemical substance | yeast gene YLR387C, incubated two hours with chemical substance | yeast gene YML117W, incubated two hours with chemical substance | yeast gene YMR067C, incubated two hours with chemical substance | yeast gene YNL074C, incubated two hours with chemical substance | yeast gene YNL305C, incubated two hours with chemical substance | yeast gene YPL222W, incubated two hours with chemical substance
1.0: yeast gene YEL001C, incubated two hours with chemical substance | yeast gene YER004W, incubated two hours with chemical substance | yeast gene YFL010C, incubated two hours with chemical substance | yeast gene YFL024C | yeast gene YGL047W, incubated two hours with chemical substance | yeast gene YGR101W, incubated two hours with chemical substance | yeast gene YIL041W, incubated two hours with chemical substance | yeast gene YJL151C, incubated two hours with chemical substance | yeast gene YKL086W, incubated two hours with chemical substance | yeast gene YMR102C, incubated two hours with chemical substance | yeast gene YNL281W, incubated two hours with chemical substance | yeast gene YOL082W, incubated two hours with chemical substance | yeast gene YOL117W, incubated two hours with chemical substance | yeast gene YOL131W, incubated two hours with chemical substance | yeast gene YPL087W, incubated two hours with chemical substance | yeast gene YPL206C, incubated two hours with chemical substance
0.7: yeast gene YLR152C, incubated two hours with chemical substance | yeast gene YLR324W, incubated two hours with chemical substance | yeast gene YNL115C, incubated two hours with chemical substance
2.1: yeast gene YLR194C, incubated two hours with chemical substance | yeast gene YLR460C
1.7: yeast gene YJL161W, incubated two hours with chemical substance | yeast gene YMR295C, incubated two hours with chemical substance
1.4: yeast gene YBL107C | yeast gene YDL204W, incubated two hours with chemical substance | yeast gene YER035W, incubated two hours with chemical substance | yeast gene YJL082W, incubated two hours with chemical substance | yeast gene YLR149C, incubated two hours with chemical substance | yeast gene YOL047C, incubated two hours with chemical substance
2.9: yeast gene YOR019W, incubated two hours with chemical substance
5.0: yeast gene YMR107W, incubated two hours with chemical substance
1.3: yeast gene YDL072C, incubated two hours with chemical substance | yeast gene YDR511W, incubated two hours with chemical substance | yeast gene YER106W, incubated two hours with chemical substance | yeast gene YIL087C, incubated two hours with chemical substance | yeast gene YMR184W, incubated two hours with chemical substance | yeast gene YMR191W, incubated two hours with chemical substance | yeast gene YNL044W, incubated two hours with chemical substance | yeast gene YNL092W, incubated two hours with chemical substance | yeast gene YOL032W, incubated two hours with chemical substance | yeast gene YOL071W, incubated two hours with chemical substance | yeast gene YPL196W, incubated two hours with chemical substance
1.8: yeast gene YGR154C, incubated two hours with chemical substance
1.5: yeast gene YGL037C, incubated two hours with chemical substance | yeast gene YGL053W, incubated two hours with chemical substance | yeast gene YJL057C, incubated two hours with chemical substance | yeast gene YKR091W, incubated two hours with chemical substance | yeast gene YMR097C, incubated two hours with chemical substance
0.6: yeast gene YDR545W, incubated two hours with chemical substance
4.1: yeast gene YOL150C
1.2: yeast gene YER158C, incubated two hours with chemical substance | yeast gene YKL151C, incubated two hours with chemical substance | yeast gene YLR350W, incubated two hours with chemical substance | yeast gene YMR180C, incubated two hours with chemical substance | yeast gene YNR068C, incubated two hours with chemical substance | yeast gene YPR023C, incubated two hours with chemical substance
2.3: yeast gene YJL171C, incubated two hours with chemical substance | yeast gene YMR009W, incubated two hours with chemical substance | yeast gene YPR151C, incubated two hours with chemical substance
1.6: yeast gene YGR110W | yeast gene YJR008W, incubated two hours with chemical substance
